In paper PMC1828167, “HIV-1 integrase inhibitors are substrates for the multidrug transporter MDR1-P-glycoprotein” (Retrovirology, 2007):
Each block holds one compound with its values, some of them ahead of it.

Columns and labels:
[1] = molecular target: T1, MDR1-P-glycoprotein (P-gp) (Homo sapiens, UniProt P08183); assay: UIC2 shift assay (P-gp functional conformation) in CEM-VBL10 cells; assay type: cell-based; set-up: CEM-VBL10 and CEM-VBL100 cells were isolated by stepwise selection of the parental drug sensitive CCRF-CEM (CEM) in the presence of increasing concentrations of VBL; endogenous in cells; host or cells: CEM-VBL10 (UIC2 shift assay) and CEM-VBL100 (doxorubicin efflux assay), MDR variants of CCRF-CEM; key to UIC2 epitope up-modulation (A): the + or ++ symbols indicate arbitrary units in measuring and differentiating the level of UIC2 epitope modulation and doxorubicin retention; the + or ++ symbols indicate arbitrary units in measuring and differentiating the level of UIC2 epitope modulation and doxorubicin retention; conditions: for mAb UIC2 reactivity: 37°C (Fig 1)
T1 sequence (P08183 whole entry): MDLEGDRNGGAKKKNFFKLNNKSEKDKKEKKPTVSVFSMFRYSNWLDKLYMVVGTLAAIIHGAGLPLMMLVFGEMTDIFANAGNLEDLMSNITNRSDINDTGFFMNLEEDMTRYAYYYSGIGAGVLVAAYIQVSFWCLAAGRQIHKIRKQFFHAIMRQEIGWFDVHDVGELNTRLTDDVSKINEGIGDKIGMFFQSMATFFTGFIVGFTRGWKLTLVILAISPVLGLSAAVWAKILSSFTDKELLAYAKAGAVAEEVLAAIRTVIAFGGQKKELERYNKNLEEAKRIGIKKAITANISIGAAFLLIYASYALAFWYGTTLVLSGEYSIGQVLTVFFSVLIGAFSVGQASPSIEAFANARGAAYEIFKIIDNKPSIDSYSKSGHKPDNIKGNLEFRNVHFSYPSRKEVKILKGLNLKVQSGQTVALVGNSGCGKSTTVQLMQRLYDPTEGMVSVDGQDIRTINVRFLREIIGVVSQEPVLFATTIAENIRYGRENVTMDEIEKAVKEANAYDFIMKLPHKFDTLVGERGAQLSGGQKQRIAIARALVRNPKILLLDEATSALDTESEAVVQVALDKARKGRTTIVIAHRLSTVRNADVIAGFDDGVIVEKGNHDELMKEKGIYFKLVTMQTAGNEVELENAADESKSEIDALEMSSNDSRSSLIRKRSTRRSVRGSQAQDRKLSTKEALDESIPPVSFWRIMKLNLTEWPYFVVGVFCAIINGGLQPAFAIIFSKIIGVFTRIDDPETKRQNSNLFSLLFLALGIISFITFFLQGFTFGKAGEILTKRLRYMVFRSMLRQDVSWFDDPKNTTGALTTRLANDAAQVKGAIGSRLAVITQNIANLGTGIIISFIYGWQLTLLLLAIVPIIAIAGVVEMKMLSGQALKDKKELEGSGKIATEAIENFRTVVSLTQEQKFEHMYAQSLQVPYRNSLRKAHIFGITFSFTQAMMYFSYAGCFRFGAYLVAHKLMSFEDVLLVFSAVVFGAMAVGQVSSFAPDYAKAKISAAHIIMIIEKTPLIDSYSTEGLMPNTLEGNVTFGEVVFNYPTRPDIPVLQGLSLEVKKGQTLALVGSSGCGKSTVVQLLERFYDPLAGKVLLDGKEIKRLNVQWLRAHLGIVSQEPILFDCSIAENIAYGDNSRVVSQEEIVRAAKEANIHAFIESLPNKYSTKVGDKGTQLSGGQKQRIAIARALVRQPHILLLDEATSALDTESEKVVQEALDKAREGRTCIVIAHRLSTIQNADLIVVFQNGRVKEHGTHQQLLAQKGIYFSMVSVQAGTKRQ
Method: (§1) The anti CD4-FITC mAb was purchased from Vinci Biochem, Firenze, Italy. The mAb UIC2 [30] was kindly provided by Dr. E. Mechetner (Chemicon Inc, Temecula, CA). For determination of P-gp expression, the mAb MM4.17, recognizing an extracellular P-gp epitope on intact/living human MDR cells, was also used. Both UIC2 and MM4.17 mAbs were used in a highly purified form.
The UIC2 shift assay was performed under physiological conditions as previously described. CEM-VBL10 cells (1 × 10^6) were resuspended in 1 ml of PBS containing 2% FCS and allowed to equilibrate at 37°C in a water bath for 10 min. The various IINs were added to samples (final concentrations 100 or 50 μg/ml) and incubated for additional 15 min at 37°C with purified UIC2 mAb (final concentration 12.5 μg/ml). VBL (10 μg/ml), which is a well known UIC2 shifting agent, and the drug diluents were used as positive and negative controls, respectively. Cells were then washed twice in ice-cold PBS containing 2% FCS with 0.01 % sodium azide (Shift Stop Buffer, SSB), stained on ice in SSB for additional 15 min with 5 μg/ml of fluorescein -conjugated goat-antimouse antibody (FITC-GAM, Cappel, West Chester, Pa, USA), washed twice with ice cold PBS/FACS and maintained in ice until flow cytometry analysis. The UIC2 shift is the difference between UIC2 binding in the presence versus the absence of the IINs under physiological conditions (37°C).

[2] = test system: P-gp expression in CEM cells; assay: Induction of P-gp expression in parental drug sensitive CEM cells (flow cytometry); assay type: cell-based, human; conditions: 25 μg/ml, 28 days of culture
Excerpt: (§2) Similarly to some of the isozymes involved in drug metabolism, the expression of P-gp is inducible. It is therefore important to assess whether P-gp induction occurs upon exposure to IINs, with potential implications for drug metabolism. To this aim, we investigated whether the treatment with the IINs RDS 1974, RDS 1983, RDS 1984 and RDS 1996, all having different biological and physicochemical properties (Table 1), modulate P-gp expression in the human CD4+ CEM cell system. The parental drug sensitive CEM cell line and the revertant of its derivative CEM-VBL10 MDR cell variant (CEMrev), expressing very low or undetectable amount of P-gp, were cultured in the presence of the indicated IINs (10 μg/ml for RDS 1974 and RDS 1996; 25 μg/ml for RDS 1983 and RDS 1984) for 28 days (RDS 1983, RDS 1984 and RDS 1996) or 104 days (RDS 1974). As a control for P-gp modulation, CEMrev cells were exposed to VBL, shown to increase P-gp expression.
The multidrug resistant (MDR) variants CEM-VBL10 and CEM-VBL100 cells were isolated by stepwise selection of the parental drug sensitive CCRF-CEM (CEM) in the presence of increasing concentrations of VBL [31, 32]. Cells were grown under standard conditions for mammalian cells cultured in suspension. […]

[3] = test system: HTLVIIIB laboratory strain of HIV-1 virus; assay: Anti-HIV activity in HIV-infected H9 cells (p24 antigen ELISA); assay type: cell-based; conditions: HIV infected H9 cell line, 3 days, 50% Effective Concentration
Method: (§3) Anti-HIV activity was measured in the human T lymphoid H9 cells. To this purpose, cells were cultured in RPMI 1640, supplemented with 2 mM L-glutamine, penicillin, streptomycin and 10% fetal bovine serum (FBS), and infected with the HTLVIIIB laboratory strain of HIV-1 virus (100000 TCID50 – Tissue Culture Infective Dose- per 10^6 […]). After two hours of incubation, cells were washed with medium, and cultured at 37°C (5000 cells/well in 96-well microplates) for 3 days in presence of medium and test compounds at concentrations ranging from 50 μM to 0.1 μM. After 3 days p24 antigen concentration in the supernatants was measured by an ELISA assay (Innotest HIV antigen mAb, Innogenetics NV Belgium). Cell viability was determined by the trypan blue exclusion method.
(§4) The 50% inhibitory drug concentration (IC50) and the 50% cytotoxic drug concentration (CC50) were calculated by the median effect equation using Calcusyn Version 2.0 program (Biosoft Cambridge)

[4] = test system: P-gp expression in CEMrev cells; assay: Induction of P-gp expression in CEMrev cells (flow cytometry); assay type: cell-based, human; conditions: for % of P-gp expressing cells: CEMrev
Excerpt: as §2, with “([…];” for “(10 μg/ml for RDS 1974 and RDS 1996;”
The multidrug resistant (MDR) variants CEM-VBL10 and CEM-VBL100 cells were isolated by stepwise selection of the parental drug sensitive CCRF-CEM (CEM) in the presence of increasing concentrations of VBL [31, 32]. Cells were grown under standard conditions for mammalian cells cultured in suspension. The basic medium (BM) for cell culturing consisted of RPMI-1640 supplemented with 10% foetal calf serum (FCS), L-glutamine (2 mM) penicillin (100 U/mL) and streptomycin (100 U/mL). All these components were purchased from Hyclone (Logan, Utah). Identical BM, culture conditions and trypsin (Hyclone) were used for the adherent MDR variant KB.V1 of the human oral epidermoid carcinoma KB cells. To test the ability of selected IINs (RDS 1974, […], RDS 1984 and RDS 1996) to induce de novo expression of P-glycoprotein, the drug-sensitive CEMrev cell line was used; this cell line derives from the CEM-VBL10 MDR cell line, cultured for more than 2 years in VBL-free medium and expresses very low (1–3%) or undetectable amounts of P-gp.
as §1

[5] = molecular target: T1, MDR1-P-glycoprotein (P-gp); assay: Doxorubicin efflux/retention in KB-V1 MDR cells (confocal microscopy); conditions: 25 μg/ml, 5 μg/ml doxorubicin, 1 and 3 hrs of extrusion
[6] = molecular target: HIV-1 Integrase (IN); set-up: method as in PMID 16539381; conditions: HIV-1 integration strand transfer step; 50% Inhibitory Concentration; cited from earlier work
[7] = molecular target: T1, MDR1-P-glycoprotein (P-gp); assay: MDR efflux assay: doxorubicin efflux inhibition in CEM-VBL100 cells (flow cytometry); assay type: cell-based; set-up: CEM-VBL10 and CEM-VBL100 cells were isolated by stepwise selection of the parental drug sensitive CCRF-CEM (CEM) in the presence of increasing concentrations of VBL; endogenous in cells; host or cells: CEM-VBL10 (UIC2 shift assay) and CEM-VBL100 (doxorubicin efflux assay), MDR variants of CCRF-CEM; key to Doxorubicin efflux inhibition (B): the + or ++ symbols indicate arbitrary units in measuring and differentiating the level of UIC2 epitope modulation and doxorubicin retention; the + or ++ symbols indicate arbitrary units in measuring and differentiating the level of UIC2 epitope modulation and doxorubicin retention; conditions: for Doxorubicin efflux inhibition (B): CEM-VBL100 cells
Method: […] The cells were incubated with doxorubicin (10 μg/ml) only or drug diluent in parallel cultures. At the end of incubation, the cells were washed in serum-free medium and resuspended in BM in the presence of the IINs or Verapamil (drug diluent was added in control samples) for a further 1 h at 37°C. Finally, cells were washed twice with ice-cold PBS/FACS, and analyzed in a flow cytometer (FACScan, Becton Dickinson, San Josè, CA).

[8] = Cytotoxicity in HIV infected H9 cell line (trypan blue exclusion); assay type: cell-based, human; conditions: human, HIV-1 (HTLVIIIB) infected H9 T lymphoid cells, 50% Cytotoxic Concentration
Method: as §3, §4

[9] = test system: H9 cells; assay: as above; assay type: cell-based, human; conditions: 50% Cytotoxic Concentration
Method: as §3, §4

Compound: O=C(O)/C(O)=C/C(=O)c1cn(Cc2c(F)cccc2F)c2ccccc2c1=O [RDS 1984]
mAb UIC2 reactivity ([1]; 50 μg/ml): increased
% of P-gp expressing cells [2]: 0%
EC50 ([3]; Human immunodeficiency virus 1, 72 h): 9.64 µM
% of P-gp expressing cells ([4]; 25 μg/ml, 28 days of culture): 15–18%
doxorubicin retention [5]: doxorubicin was retained
IC50 [6]: 0.019 µM
intracellular accumulation of doxorubicin ([7]; CEM-VBL100 MDR cells, 1 μg/ml to 100 μg/ml (Fig 2)): intracellular accumulation of doxorubicin with a dose dependent effect
CC50 at 3 days [8]: > 50 µM

Compound: O=C(O)C(=O)/C=C(\O)c1ccc2c(c1)c(=O)c(/C(O)=C/C(=O)C(=O)O)cn2Cc1ccc(F)cc1 [RDS 1997]
UIC2 epitope up-modulation (A) ([1]; 50 μg/ml): +
UIC2 epitope up-modulation (A) ([1]; 100 μg/ml): ++
EC50 [3]: 2.44 µM
Doxorubicin efflux inhibition (B) ([7]; 25 μg/ml): +
Doxorubicin efflux inhibition (B) ([7]; 50 μg/ml): ++
CC50 [9]: > 50 µM

mAb UIC2 reactivity ([1]; 10 μg/ml): increased
Compound: CC[C@]1(O)C[C@@H]2CN(CCc3c([nH]c4ccccc34)[C@@](C(=O)OC)(c3cc4c(cc3OC)N(C)[C@H]3[C@@](O)(C(=O)OC)[C@H](OC(C)=O)[C@]5(CC)C=CCN6CC[C@]43[C@@H]65)C2)C1 [Vinblastine]
P-gp expression (in words) ([4]; CEMrev cell line, compared with the drug diluent control): strong induction of P-gp expression
% of P-gp expressing cells ([4]; 10 μg/ml, 28 days of culture): 30–35%
% of P-gp expressing cells ([4]; 10 μg/ml, 104 days of culture): 60–70%
